# Test results: patent US20030187048A1, “Method for inhibiting skin lesion formation using histamine as the active ingredient” (priority 1991, published 2003)
# “And” between values parts separate entries of the source, which are not always exact repeats. Equal values may be shown once. Read-outs that look alike come from different tables or passages of the source.
# Legend:
# [1] = system: pressure sores (decubitus ulcers); conditions: for Percent Reduction in Area from original Size / Mean Percent Reduction/Week: per patient; for Mean Percent Reduction/Week: lesion area from original size
# Excerpt: Treatment included standardized decubitus ulcer care for all pressure sores as determined by the protocol for the study.
# Prospective subjects were considered for the study if their pressure sores (decubitus ulcers) were free from infection and either a Stage I or a Stage II lesion.
# Patients were randomly assigned to one of four active ingredient levels being evaluated. […] Assignment of subjects to the four gel concentrations was unknown to the investigator.
# The topical application of all gel concentrations to their respective, randomly assigned patients occurred once daily following careful rinsing of the pressure sore with sterile normal saline. After application of the appropriate gel concentration, each pressure sore was covered with a bio-occlusive dressing to minimize wound contamination.
# Clinical evaluation included weekly classification of the stage of the pressure sores, the size and depth of the sores, the color, signs of infection (if present), odor (if present), and patient cooperation with treatment.
# [2] = system: active herpes labialis lesions; conditions: 0.0275% gel
# Excerpt: An additional gel concentration (0.0275%) was' used on two patients for active herpes labialis lesions.
# [3] = system: herpetic stomatitis lesions (fever blisters or cold sores)
# Method: (§1) The composition of the present invention includes initial preparation of a gel base by adding 0.8% CARBOPOL 940, which is a vinyl polymer, to distilled water. This mixture was allowed to stand for several hours until the polymer was wetted and a gel was formed. This mixture then was blended by means of a ordinary high speed mixer, such as a Lightning Labmaster II until a homogenous mixture is formed. At this point, a neutralizing and emulsifying agent such as an amino alcohol was added, forming an emulsion. […] This composition then was applied topically to various types of lesions, as subsequently described. […] Propylparaben or methylparaben may be used as a preservative. For “unidose” dispensers containing only two to three drops, no preservatives are used, as it is known that preservatives in ophthalmic solutions frequently cause undesirable side effects. The term semi-synthetic water soluble polymer as used herein includes hydroxy methylcellulose or carboxy methylcellulose. Carbopol is widely available in different viscosities.
# [4] = system: aphthous ulcers (canker sores); conditions: 0.0067% IEP gel; aphthous stomatitis
# Method: as §1
# [5] = 0.0067% IEP gel, herpes labialis
smiles,measurement,setting,value
"NCCc1c[nH]cn1 [IEP, 1H-imidazole-4-ethanamine,phosphate]",Percent Reduction in Area from original Size,"[1]; 0.0045% IEP gel, end of treatment week 1",28.5% and 29.8%
same,Percent Reduction in Area from original Size,"[1]; 0.0045% IEP gel, end of week 2",33.6% and 66.6%
same,Percent Reduction in Area from original Size,"[1]; 0.0045% IEP gel, end of week 3",51.6% and 72.8%
same,Percent Reduction in Area from original Size,"[1]; 0.0045% IEP gel, end of week 4",71.7% and 84.9%
same,Percent Reduction in Area from original Size,"[1]; 0.0045% IEP gel, end of week 5",78.8% and 90.1%
same,Percent Reduction in Area from original Size,"[1]; 0.0045% IEP gel, end of week 6",87.0% and 95.6%
same,Percent Reduction in Area from original Size,"[1]; 0.0045% IEP gel, end of week 7",91.4% and 97.5%
same,Percent Reduction in Area from original Size,"[1]; 0.0045% IEP gel, end of week 8",92.3% and 99.4%
same,Percent Reduction in Area from original Size,"[1]; 0.0045% IEP gel, end of week 9",92.3% and 99.4%
same,Percent Reduction in Area from original Size,"[1]; 0.0045% IEP gel, end of week 10",99.4%
same,Mean Percent Reduction/Week,[1]; 0.0045% gel,10.3% and 12.1%
same,Percent Reduction in Area from original Size,"[1]; 0.0069% IEP gel, end of week 1",48.6% and 55.6%
same,Percent Reduction in Area from original Size,"[1]; 0.0069% IEP gel, end of week 2",77.1% and 60.0%
same,Percent Reduction in Area from original Size,"[1]; 0.0069% IEP gel, end of week 3",77.1% and 78.2%
same,Percent Reduction in Area from original Size,"[1]; 0.0069% IEP gel, end of week 4",100% and 81.3%
same,Percent Reduction in Area from original Size,"[1]; 0.0069% IEP gel, end of week 5",84.4%
same,Percent Reduction in Area from original Size,"[1]; 0.0069% IEP gel, end of week 6",88.9%
same,Percent Reduction in Area from original Size,"[1]; 0.0069% IEP gel, end of week 7",100%
same,Mean Percent Reduction/Week,[1]; 0.0069% gel,14.3% and 25.0%
same,Percent Reduction in Area from original Size,"[1]; 0.009% IEP gel, end of week 1",66.7% and 56.5%
same,Percent Reduction in Area from original Size,"[1]; 0.009% IEP gel, end of week 2",100.0% and 56.5%
same,Percent Reduction in Area from original Size,"[1]; 0.009% IEP gel, end of week 3",100.0%
same,Mean Percent Reduction/Week,[1]; 0.009% gel,50.0% and 40.0%
same,Reducing the size of pressure sores vs placebo gel,"[1]; 0.009% vs 0%, mean percent reduction in area per week, p<0.05",statistically significantly more effective
same,Untoward effects,[1]; in vivo,no untoward effects
same,Difference in lesion decay rates vs placebo gel,[2]; p<0.05,statistically significant
same,Standardized Decay Rate/24 hrs,[2]; per patient,56.55 and 36.36
same,"Burning, reduction after 1 app.",[3]; [5],63%
same,"Burning, reduction after 1 day",[3]; [5],92%
same,Estimated number of applications needed to eliminate clinical symptoms,[3]; [5],5
same,"Itching, reduction after 1 app.",[3]; [5],%60
same,"Itching, reduction after 1 day",[3]; [5],97%
same,"Pain, reduction after 1 app.",[3]; [5],58%
same,"Pain, reduction after 1 day",[3]; [5],87%
same,Percentage decrease in healing time compared to untreated episode,[3]; [5],49%
same,Percentage of patients who experienced lesion abortion,[3]; [5],60%
same,"Size, reduction after 1 app.",[3]; [5],10%
same,"Size, reduction after 1 day",[3]; [5],32%
same,"Spreading, reduction after 1 app.",[3]; [5],40%
same,"Spreading, reduction after 1 day",[3]; [5],62%
same,"Swelling, reduction after 1 app.",[3]; [5],%27
same,"Swelling, reduction after 1 day",[3]; [5],72%
same,Fraction of total patients who experienced the abortion of lesions,"[3]; 0.0067% gel applied at first sensation, both treatment groups (herpes labialis and aphthous ulcers)",Approximately two-thirds
same,"Burning, reduction after 1 app.",[4],20%
same,"Burning, reduction after 1 day",[4],40%
same,Estimated number of applications needed to eliminate clinical symptoms,[4],9
same,"Pain, reduction after 1 app.",[4],73%
same,"Pain, reduction after 1 day",[4],80%
same,Percentage decrease in healing time compared to untreated episode,[4],67%
same,Percentage of patients who experienced lesion abortion,[4],67%
same,"Size, reduction after 1 app.",[4],23%
same,"Size, reduction after 1 day",[4],43%
same,"Swelling, reduction after 1 app.",[4],20%
same,"Swelling, reduction after 1 day",[4],50%
